The numbers were not newly measured in US20230310417A1, “INJECTABLE ARIPIPRAZOLE FORMULATION” (CIPLA LIMITED, priority 2020, published 2023), which cites them from elsewhere.

The conditions of the series: room temperature.

SMILES strings stand for the structures. Some results are limits rather than exact numbers.

For the compound `O=C1CCc2ccc(OCCCCN3CCN(c4cccc(Cl)c4Cl)CC3)cc2N1` [Aripiprazole], the aqueous solubility (in general, how much of the substance goes into solution per volume) is under 1 µg/mL.
